Experimental data: PMC8159961, “Exploring protein hotspots by optimized fragment pharmacophores” (Nature Communications, 2021)
Several values for one entry are separate records, joined by “and”; a condition that tells them apart may be missing. Equal entries are not always repeated. Where two headings read alike, the source gives them in different places.

How the values were obtained:
SARS-CoV-2 = test: microbe, parasite or virus in culture; format: cell-based
SARS-CoV-2 3CLPro = SARS-CoV-2 3CLPro (Severe acute respiratory syndrome coronavirus 2, UniProt P0DTD1); test: biochemical

## CS(=O)(=O)c1ccc(N2CCNCC2)cc1 [SX013]
SARS-CoV-2; 10 uM, Vero E6, replicates
  Inhibition (%): 0% (2×) and 3.199%
  viral copy numbers normalized to the control (untreated infected cells): 1.473 and 0.968 and 1.581
SARS-CoV-2; 100 uM, Vero E6, replicates
  Inhibition (%): 10.36% and 9.981% and 0%
  viral copy numbers normalized to the control (untreated infected cells): 0.8964 and 0.9002 and 2.418
SARS-CoV-2; 250 uM, Vero E6, replicates
  Inhibition (%): 47.65% and 50.9%
  viral copy numbers normalized to the control (untreated infected cells): 0.5487 and 0.5235 and 0.491
SARS-CoV-2; 500 uM, Vero E6, replicates
  Inhibition (%): 62.09% and 74.66%
  viral copy numbers normalized to the control (untreated infected cells): 0.2563 and 0.3791 and 0.2534
SARS-CoV-2; 750 uM, Vero E6, replicates
  Inhibition (%): 96.1% and 86.32%
  viral copy numbers normalized to the control (untreated infected cells): 0.06859 and 0.03899 and 0.1368
SARS-CoV-2; 1000 uM, Vero E6, replicates
  Inhibition (%): 99.81%
  viral copy numbers normalized to the control (untreated infected cells): 0.003839 and 0.001919 and 0
SARS-CoV-2; 1500 uM, Vero E6, replicates
  Inhibition (%): 99.97%
  viral copy numbers normalized to the control (untreated infected cells): 0 (2×) and 0.000289
SARS-CoV-2; Severe acute respiratory syndrome coronavirus 2, Vero C1008, 250 uM, Vero E6, replicates
  inhibition at 250 µM: 45.1%
SARS-CoV-2; Severe acute respiratory syndrome coronavirus 2, Vero C1008, 500 uM, Vero E6, replicates
  inhibition at 500 µM: 74.4%
SARS-CoV-2; Severe acute respiratory syndrome coronavirus 2, Vero C1008, 750 uM, Vero E6, replicates
  inhibition at 750 µM: 93.1%
SARS-CoV-2; Severe acute respiratory syndrome coronavirus 2, Vero C1008, 1000 uM, Vero E6, replicates
  inhibition at 1000 µM: 99.6%
SARS-CoV-2; Severe acute respiratory syndrome coronavirus 2, Vero C1008, 1500 uM, Vero E6, replicates
  inhibition at 1500 µM: 100%
SARS-CoV-2; Severe acute respiratory syndrome coronavirus 2, Vero C1008, 48 h, read-out: EC50, blocking SARS-CoV-2 replication, Vero E6 cells, 48 h post infection
  EC50: 304 µM
SARS-CoV-2; read-out: EC50, blocking SARS-CoV-2 replication, Vero E6 cells, 48 h post infection
  EC50: 304 µM
SARS-CoV-2 3CLPro
  IC50: 31 µM
